Like-named read-outs stand apart in the source and are kept apart here.
Target: ALPK1 (Homo sapiens (Human), UniProt Q96QP1)
Assay: ALPK1 in vitro kinase assay (HTRF of TIFA phosphorylation)
Format: biochemical
Excerpt: In embodiments, a compound of Formula I, or a subembodiment described herein, is an inhibitor of ALPK1 as measured, for example, in an in vitro kinase assay, or an assay designed to measure the activation of downstream targets of ALPK1 pathway activation, for example NFkB transcriptional activation and the secretion of proinflammatory cytokines and chemokines, such as IL-8, which is also referred to as CXCL-8. In general, the computer program XL fit was used for data analysis, including non-linear regression analysis. The half maximal inhibitory concentration (IC50) was used as the measure of a compound's effectiveness in the assays. IC50 values were determined using the following logistic equation Y=min+(max−min)/(1+(X/IC50^−hillslpoe), where Y is the value at the compound concentration, X. The concentration response curve fitting was conducted using GraphPad Prism version 6.00 software.
ALPK1 kinase activity was measured in an in vitro assay using ADP-Heptose as the ALPK1 ligand and activator of its kinase activity and TIFA protein as the ALPK1 phosphorylation substrate. Since phosphorylated TIFA proteins oligomerize, Homogeneous Time-Resolved Fluorescence (HTRF) was used to measure protein:protein interaction between HA-tagged TIFA proteins as an indicator of TIFA phosphorylation.
In brief, dose-response studies were performed with HEK293 cells cultured in Dulbecco's Modified Eagle Medium (DMEM) supplemented 10% fetal bovine serum (FBS, Hyclone™) containing antibiotics (pen/strep, G418) in 384-well assay plates. Each well contained 0.1 mg TIFA, ALPK1 (2 nM final concentration in reaction mixture) and kinase buffer (100 mM of HEPES pH 7.4, 4 mM DTT, 40 mM MgCl2, 20 mM of β-Glycerol phosphate disodium salt, 0.4 mM of Na3VO4, 0.16 mg/mL). Titrations of the test compounds were prepared in dimethylsulphoxide (DMSO). The reaction was initiated by addition of ATP and ADP-Heptose.
For HTRF, samples were incubated with a Tb cryptate-labeled anti-HA antibody for capturing HA-tagged proteins according to the manufacturer's instructions (PerkinElmer™, CisBio™) and the fluorescence signal was quantified (Tecan Infinite F NANO+). HTRF signals were calculated as the HTRF ratio (ratio of fluorescence measured at 665 nm and 620 nm)×104 (thereby using the signal at 620 nm as an internal standard).
IC50 values were determined using 3- or 4-parameter logistic equation using GraphPad Prism version 6.00. The reference compound, A027, was used as a positive control for each plate.

[1] = ALPK1 2 nM, TIFA substrate, ADP-Heptose activator, HTRF readout

Chain of ALPK1 (Q96QP1 whole entry): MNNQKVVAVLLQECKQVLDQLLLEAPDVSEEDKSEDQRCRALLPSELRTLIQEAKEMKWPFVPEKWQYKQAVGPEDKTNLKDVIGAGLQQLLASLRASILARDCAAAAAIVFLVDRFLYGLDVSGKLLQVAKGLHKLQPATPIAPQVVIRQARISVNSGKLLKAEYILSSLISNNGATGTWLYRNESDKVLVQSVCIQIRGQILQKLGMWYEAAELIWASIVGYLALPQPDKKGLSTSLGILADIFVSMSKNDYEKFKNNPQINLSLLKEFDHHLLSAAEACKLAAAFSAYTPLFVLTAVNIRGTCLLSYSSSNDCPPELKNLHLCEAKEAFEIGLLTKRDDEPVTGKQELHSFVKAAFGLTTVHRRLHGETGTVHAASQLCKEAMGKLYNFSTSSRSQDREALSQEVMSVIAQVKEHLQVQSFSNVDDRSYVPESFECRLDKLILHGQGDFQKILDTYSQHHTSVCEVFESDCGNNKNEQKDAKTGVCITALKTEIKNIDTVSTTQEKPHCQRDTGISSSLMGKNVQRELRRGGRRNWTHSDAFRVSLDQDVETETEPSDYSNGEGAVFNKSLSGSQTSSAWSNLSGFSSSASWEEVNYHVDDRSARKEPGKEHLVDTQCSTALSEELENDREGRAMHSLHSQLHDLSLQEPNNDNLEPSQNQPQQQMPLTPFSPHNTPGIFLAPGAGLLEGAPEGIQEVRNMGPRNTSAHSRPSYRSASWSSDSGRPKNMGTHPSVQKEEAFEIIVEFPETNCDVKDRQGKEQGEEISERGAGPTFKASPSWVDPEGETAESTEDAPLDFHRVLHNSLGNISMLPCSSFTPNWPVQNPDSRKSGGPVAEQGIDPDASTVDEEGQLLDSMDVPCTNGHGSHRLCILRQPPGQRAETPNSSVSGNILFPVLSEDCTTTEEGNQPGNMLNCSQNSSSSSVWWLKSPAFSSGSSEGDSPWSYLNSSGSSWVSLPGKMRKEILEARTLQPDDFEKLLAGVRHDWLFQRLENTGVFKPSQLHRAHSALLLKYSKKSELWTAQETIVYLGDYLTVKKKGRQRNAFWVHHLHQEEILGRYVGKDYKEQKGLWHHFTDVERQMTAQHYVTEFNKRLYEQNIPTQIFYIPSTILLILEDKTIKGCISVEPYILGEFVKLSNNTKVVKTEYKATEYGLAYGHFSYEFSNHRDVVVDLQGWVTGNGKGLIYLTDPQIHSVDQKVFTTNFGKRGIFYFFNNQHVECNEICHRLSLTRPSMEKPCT

Structure (SMILES): COc1ccc(C(C)(C)c2csc(NC(=O)NCCCCN)c2)cc1 [Example A188, 1-(4-aminobutyl)-3-(4-(2-(4-methoxyphenyl)propan-2-yl)thiophen-2-yl)urea]
- IC50: 59 nM

Structure (SMILES): CC(C)(c1ccc(Br)cc1)c1csc(NC(=O)NCc2ccc(N3CCCNCC3)c(F)c2)n1 [Example A197, 1-(4-(1,4-diazepan-1-yl)-3-fluorobenzyl)-3-(4-(2-(4-bromophenyl)propan-2-yl)thiazol-2-yl)urea]
- IC50: 67 nM

Structure (SMILES): COc1ccc(C(C)(C)c2csc(NC(=O)NCc3ccc(N4CCC(N)C4)nc3)n2)cc1 (centres unmarked) [Example A199, 1-((6-(3-aminopyrrolidin-1-yl)pyridin-3-yl)methyl)-3-(4-(2-(4-methoxyphenyl)propan-2-yl)thiazol-2-yl)urea]
- IC50: 34 nM

Structure (SMILES): CC(C)(c1ccc(Br)cc1)c1csc(NC(=O)NCc2cnc(NCCN3CCNCC3)nc2)n1 [Example A206, 1-(4-(2-(4-bromophenyl)propan-2-yl)thiazol-2-yl)-3-((2-((2-(piperazin-1-yl)ethyl)amino)pyrimidin-5-yl)methyl)urea]
- IC50: 68 nM

Structure (SMILES): COc1ccc(C(C)(C)c2csc(NC(=O)NCc3cnc(N4CCNCC4)c(C(N)=O)c3)n2)cc1 [Example A209, 5-((3-(4-(2-(4-methoxyphenyl)propan-2-yl)thiazol-2-yl)ureido)methyl)-2-(piperazin-1-yl)nicotinamide]
- IC50: 43 nM

Structure (SMILES): C#C[C@](C)(c1ccc(OC)cc1)c1csc(NC(=O)N2CC(CO)C2)n1 [Example A255, (R)-3-(hydroxymethyl)-N-(4-(2-(4-methoxyphenyl)but-3-yn-2-yl)thiazol-2-yl)azetidine-1-carboxamide]
- IC50: 688 nM

Structure (SMILES): C#CC(C)(c1ccc(Cl)cc1)c1csc(NC(=O)N(C)CCO)n1 (centres unmarked) [Example A266, 3-(4-(2-(4-chlorophenyl)but-3-yn-2-yl)thiazol-2-yl)-1-(2-hydroxyethyl)-1-methylurea]
- IC50: 546 nM

Structure (SMILES): C#CC(C)(c1ccc(Cl)cc1)c1csc(NC(=O)N(CCO)CCO)n1 (centres unmarked) [Example A267, 3-(4-(2-(4-chlorophenyl)but-3-yn-2-yl)thiazol-2-yl)-1,1-bis(2-hydroxyethyl)urea]
- IC50: 171 nM

Structure (SMILES): COc1ccc(C(C)(C)c2csc(NC(=O)c3ccc(N4CCNCC4)cc3)n2)cc1 [Example B001, N-(4-(2-(4-methoxyphenyl)propan-2-yl)thiazol-2-yl)-4-(piperazin-1-yl)benzamide]
- IC50 [1]: 123 nM

Structure (SMILES): CC(C)(c1ccc(Br)cc1)c1csc(NC(=O)c2ccc3[nH]ccc3c2)n1 [Example B002, N-(4-(2-(4-bromophenyl)propan-2-yl)thiazol-2-yl)-1H-indole-5-carboxamide]
- IC50 [1]: 206 nM

Structure (SMILES): CC(C)(c1ccc(Br)cc1)c1csc(NC(=O)c2ccc(C(N)=O)cc2)n1 [Example B003, N-(4-(2-(4-bromophenyl)propan-2-yl)thiazol-2-yl)terephthalamide]
- IC50 [1]: 192 nM

Structure (SMILES): COc1ccc(C(C)(C)c2csc(NC(=O)c3cccc(N4CCNCC4)c3)n2)cc1 [Example B004, N-(4-(2-(4-methoxyphenyl)propan-2-yl)thiazol-2-yl)-3-(piperazin-1-yl)benzamide]
- IC50 [1]: 211 nM

Structure (SMILES): COc1ccc(C(C)(C)c2csc(NC(=O)c3cccc(CN4CCNCC4)c3)n2)cc1 [Example B005, N-(4-(2-(4-methoxyphenyl)propan-2-yl)thiazol-2-yl)-3-(piperazin-1-ylmethyl)benzamide]
- IC50 [1]: 215 nM

Structure (SMILES): COc1ccc(C(C)(C)c2csc(NC(=O)c3ccc(N4CCN(CCO)CC4)cc3)n2)cc1 [Example B006, 4-(4-(2-hydroxyethyl)piperazin-1-yl)-N-(4-(2-(4-methoxyphenyl)propan-2-yl)thiazol-2-yl)benzamide]
- IC50 [1]: 595 nM

Structure (SMILES): COc1ccc(C(C)(C)c2csc(NC(=O)c3cccc(N4CCN(CCO)CC4)c3)n2)cc1 [Example B007, 3-(4-(2-hydroxyethyl)piperazin-1-yl)-N-(4-(2-(4-methoxyphenyl)propan-2-yl)thiazol-2-yl)benzamide]
- IC50 [1]: 230 nM

Structure (SMILES): COc1ccc(C(C)(C)c2csc(NC(=O)c3ccc(N4CCNCC4)cc3Cl)n2)cc1 [Example B008, 2-chloro-N-(4-(2-(4-methoxyphenyl)propan-2-yl)thiazol-2-yl)-4-(piperazin-1-yl)benzamide]
- IC50 [1]: 37 nM

Structure (SMILES): COc1ccc(C(C)(C)c2csc(NC(=O)c3ccc(N4CCC(O)C4)cc3)n2)cc1 (centres unmarked) [Example B009, 4-(3-hydroxypyrrolidin-1-yl)-N-(4-(2-(4-methoxyphenyl)propan-2-yl)thiazol-2-yl)benzamide]
- IC50 [1]: 951 nM

Structure (SMILES): COc1ccc(C(C)(C)c2csc(NC(=O)c3ccc(N4CCC(N(C)C)C4)nc3)n2)cc1 (centres unmarked) [Example B010, 6-(3-(dimethylamino)pyrrolidin-1-yl)-N-(4-(2-(4-methoxyphenyl)propan-2-yl)thiazol-2-yl)nicotinamide]
- IC50 [1]: 187 nM

Structure (SMILES): COc1ccc(C(C)(C)c2csc(NC(=O)c3ccc(CN4CCNCC4)cc3F)n2)cc1 [Example B013, 2-fluoro-N-(4-(2-(4-methoxyphenyl)propan-2-yl)thiazol-2-yl)-4-(piperazin-1-ylmethyl)benzamide]
- IC50 [1]: 111 nM

Structure (SMILES): COc1ccc(C(C)(C)c2csc(NC(=O)c3ccc(N4CCNCC4C)cc3)n2)cc1 (centres unmarked) [Example B014]
- IC50 [1]: 300 nM

Structure (SMILES): COc1ccc(C(C)(C)c2csc(NC(=O)c3cnc(N4CCNCC4)nc3)n2)cc1 [Example B015, N-(4-(2-(4-methoxyphenyl)propan-2-yl)thiazol-2-yl)-2-(piperazin-1-yl)pyrimidine-5-carboxamide]
- IC50 [1]: 161 nM

Structure (SMILES): CC(C)(c1ccc(Br)cc1)c1csc(NC(=O)c2ccc(N3CCNCC3)cc2)n1 [Example B016, N-(4-(2-(4-bromophenyl)propan-2-yl)thiazol-2-yl)-4-(piperazin-1-yl)benzamide]
- IC50 [1]: 60 nM

Structure (SMILES): COc1ccc(C(C)(C)c2csc(NC(=O)c3ccc(CN4CCN(C)CC4)cc3)n2)cc1 [Example B017, N-(4-(2-(4-methoxyphenyl)propan-2-yl)thiazol-2-yl)-4-((4-methylpiperazin-1-yl)methyl)benzamide]
- IC50 [1]: 148 nM

Structure (SMILES): COc1ccc(C(C)(C)c2csc(NC(=O)c3cccc(CN4CCN(CCO)CC4)c3)n2)cc1 [Example B018, 3-((4-(2-hydroxyethyl)piperazin-1-yl)methyl)-N-(4-(2-(4-methoxyphenyl)propan-2-yl)thiazol-2-yl)benzamide]
- IC50 [1]: 187 nM

Structure (SMILES): CC(c1ccc(C(=O)Nc2nc(C(C)(C)c3ccc(Br)cc3)cs2)cc1)N1CCNCC1 (centres unmarked) [Example B019, N-(4-(2-(4-bromophenyl)propan-2-yl)thiazol-2-yl)-4-(1-(piperazin-1-yl)ethyl)benzamide]
- IC50 [1]: 98 nM

Structure (SMILES): COc1ccc(C(C)(C)c2csc(NC(=O)c3ccc(OC4CCN(CCO)CC4)cc3)n2)cc1 [Example B020, 4-((1-(2-hydroxyethyl)piperidin-4-yl)oxy)-N-(4-(2-(4-methoxyphenyl)propan-2-yl)thiazol-2-yl)benzamide]
- IC50 [1]: 170 nM

Structure (SMILES): COc1ccc(C(C)(C)c2csc(NC(=O)c3ccc(OCCN(C)C)cc3)n2)cc1 [Example B021, 4-(2-(dimethylamino)ethoxy)-N-(4-(2-(4-methoxyphenyl)propan-2-yl)thiazol-2-yl)benzamide]
- IC50 [1]: 83 nM

Structure (SMILES): COc1ccc(C(C)(C)c2csc(NC(=O)c3ccc(OCCCN4CCNCC4)cc3)n2)cc1 [Example B022, N-(4-(2-(4-methoxyphenyl)propan-2-yl)thiazol-2-yl)-4-(3-(piperazin-1-yl)propoxy)benzamide]
- IC50 [1]: 294 nM

Structure (SMILES): COc1ccc(C(C)(C)c2csc(NC(=O)c3cccc(OCCCN4CCNCC4)c3)n2)cc1 [Example B023, N-(4-(2-(4-methoxyphenyl)propan-2-yl)thiazol-2-yl)-3-(3-(piperazin-1-yl)propoxy)benzamide]
- IC50 [1]: 150 nM

Structure (SMILES): COc1ccc(C(C)(C)c2csc(NC(=O)c3ccc(OCCN4CCNCC4)cc3)n2)cc1 [Example B024, N-(4-(2-(4-methoxyphenyl)propan-2-yl)thiazol-2-yl)-4-(2-(piperazin-1-yl)ethoxy)benzamide]
- IC50 [1]: 116 nM

Structure (SMILES): COc1ccc(C(C)(C)c2csc(NC(=O)c3cnc(N4CCNCC4)cn3)n2)cc1 [Example B025, N-(4-(2-(4-methoxyphenyl)propan-2-yl)thiazol-2-yl)-5-(piperazin-1-yl)pyrazine-2-carboxamide]
- IC50 [1]: 298 nM

Structure (SMILES): COc1ccc(C(C)(C)c2csc(NC(=O)c3ccc(CN4CCNCC4C)cc3)n2)cc1 (centres unmarked) [Example B026, N-(4-(2-(4-methoxyphenyl)propan-2-yl)thiazol-2-yl)-4-((2-methylpiperazin-1-yl)methyl)benzamide]
- IC50 [1]: 127 nM
